Experimental data as given in patent US10760052B2, “Method of inhibiting tau phosphorylation” (priority 2012, dated 2020).
Where two headings read alike, the source gives them in different places.

Biological target: T1, mu opiate receptor (MOR) (Rattus norvegicus, UniProt P33535)
T1 construct: from tissue; host or cells: striatum (membrane preparation)
Format: biochemical
Conditions: for Concentration of FLNA-Binding Compound as Agonist 0.1 μM / Concentration of FLNA-Binding Compound as Agonist 1 μM / Concentration of FLNA-Binding Compound as Agonist 1 μM + BFNA: [35S]GTPγS binding to Gαo in striatal membranes; for Concentration of FLNA-Binding Compound as Agonist 0.1 μM: compound 0.1 μM; for Concentration of FLNA-Binding Compound as Agonist 1 μM: compound 1 μM; for Concentration of FLNA-Binding Compound as Agonist 1 μM + BFNA: compound 1 μM plus 1 μM β-funaltrexamine (MOR antagonist)
Procedure: To assess the mu opiate receptor (MOR) agonist activity of positive compounds from the FLNA screening, compounds were tested in a [^35S]GTPγS binding assay using striatal membranes. […] This assay measures a functional consequence of receptor occupancy at one of the earliest receptor-mediated events. The assay permits for traditional pharmacological parameters of potency, efficacy and antagonist affinity, with the advantage that agonist measures are not subjected to amplification or other modulation that may occur when analyzing parameters further downstream of the receptor.
Thus, striatal tissue was homogenized in 10 volumes of ice cold 25 mM HEPES buffer, pH 7.4, which contained 1 mM EGTA, 100 mM sucrose, 50 μg/ml leupeptin, 0.04 mM PMSF, 2 μg/ml soybean trypsin inhibitor and 0.2% 2-mercaptoethanol. The homogenates were centrifuged at 800×g for 5 minutes and the supernatants were centrifuged at 49,000×g for 20 minutes.
The resultant striatal membrane preparation (200 μg) was admixed and maintained (incubated) at 30° C. for 5 minutes in reaction buffer as above that additionally contained 1 mM MgCl2 and 0.5 nM [^35S]GTPγS (0.1 μCi/assay, PerkinElmer Life and Analytical Sciences) in a total volume of 250 μl and continued for 5 minutes in the absence or presence of 0.1-10 μM of an assayed compound of interest. The reaction was terminated by dilution with 750 μl of ice-cold reaction buffer that contained 20 mM MgCl2 and 1 mM EGTA and immediate centrifugation at 16,000×g for 5 minutes.
Normal rabbit serum (1 μl) was added to 1 ml of lysate and incubated at 25° C. for 30 minutes. Nonspecific immune complexes were removed by incubation with 25 μl of protein A/G-conjugated agarose beads at 25° C. for 30 minutes followed by centrifugation at 5,000×g at 4° C. for 5 minutes. The supernatant was divided and separately incubated at 25° C. for 30 minutes with antibodies raised against Gαo proteins (1:1,000 dilutions).
The immunocomplexes so formed were collected by incubation at 25° C. for 30 minutes with 40 μl of agarose-conjugated protein A/G beads and centrifugation at 5,000×g at 4° C. for 5 minutes. The pellet was washed and suspended in buffer containing 50 mM Tris-HCl, pH 8.0, and 1% NP-40. The radioactivity in the suspension was determined by liquid scintillation spectrometry.

[1] = 0.1 μM compound, striatal membranes, Series C-2
[2] = 1 μM compound + 1 μM β-FNA (selective MOR antagonist), Series C-2
[3] = 1 μM compound, striatal membranes, Series C-2

T1 sequence (P33535 whole entry): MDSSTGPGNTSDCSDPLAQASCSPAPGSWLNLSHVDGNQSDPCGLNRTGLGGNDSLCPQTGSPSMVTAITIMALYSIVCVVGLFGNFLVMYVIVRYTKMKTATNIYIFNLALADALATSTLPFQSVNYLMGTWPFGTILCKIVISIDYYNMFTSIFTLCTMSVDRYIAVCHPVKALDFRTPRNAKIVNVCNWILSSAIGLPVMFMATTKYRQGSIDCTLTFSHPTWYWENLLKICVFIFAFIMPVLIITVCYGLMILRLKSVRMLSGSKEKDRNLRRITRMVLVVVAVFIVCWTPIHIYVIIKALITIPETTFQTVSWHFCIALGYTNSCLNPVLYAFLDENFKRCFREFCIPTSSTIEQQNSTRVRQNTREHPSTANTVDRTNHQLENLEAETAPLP

COc1ccc(S(=O)(=O)N2CCSC23CCNCC3)cc1 [S-C0027]
% DAMGO (0.1 μM): 74.2%
% DAMGO (1 μM): 84.4%
% DAMGO + BFNA: 98.1%
[35S]GTPγS binding, FLNA-Binding Compound as Agonist at 0.1 μM [1]: 156.2%
[35S]GTPγS binding, FLNA-Binding Compound as Agonist at 1 μM + BFNA [2]: 56.2%
[35S]GTPγS binding, FLNA-Binding Compound as Agonist at 1 μM [3]: 286.8%

COc1c2c(cc3c1C(CC(=O)CCc1ccc(Cl)cc1)[N+](C)(C)CC3)OCO2 (stereo not drawn) [Compound B0017]
% DAMGO (0.1 μM): 58.9%
% DAMGO (1 μM): 45.6%
% DAMGO + BFNA: 75.2%
Concentration of FLNA-Binding Compound as Agonist 0.1 μM: 99.6%
Concentration of FLNA-Binding Compound as Agonist 1 μM: 122.0%
Concentration of FLNA-Binding Compound as Agonist 1 μM + BFNA: 49.6%

CC(=O)c1ccc(C(=O)N2CCC3(CC2)OCCN3C(=O)c2ccc(C(C)=O)cc2)cc1 [Compound C0054]
% DAMGO (0.1 μM): 47.0%
% DAMGO (1 μM): 54.5%
% DAMGO + BFNA: 98.9%
Concentration of FLNA-Binding Compound as Agonist 0.1 μM: 68.2%
Concentration of FLNA-Binding Compound as Agonist 1 μM: 127.0%
Concentration of FLNA-Binding Compound as Agonist 1 μM + BFNA: 43.5%

CC(=O)c1ccc(S(=O)(=O)N2CC(CN(C)C)OC23CCN(CC2CC2)CC3)cc1 (stereo not drawn) [Compound C0128M]
% DAMGO (0.1 μM): 104.5%
% DAMGO (1 μM): 115.2%
% DAMGO + BFNA: 131.8%
[35S]GTPγS binding, FLNA-Binding Compound as Agonist at 0.1 μM [1]: 197.8%
[35S]GTPγS binding, FLNA-Binding Compound as Agonist at 1 μM + BFNA [2]: 63.9%
[35S]GTPγS binding, FLNA-Binding Compound as Agonist at 1 μM [3]: 286.0%

Cc1ccc(S(=O)(=O)N2CCC3(CC2)OCCN3S(=O)(=O)c2ccc(C)cc2)cc1 [Compound C0001]
% DAMGO (0.1 μM): 75.2%
% DAMGO (1 μM): 66.6%
% DAMGO + BFNA: 52.9%
Concentration of FLNA-Binding Compound as Agonist 0.1 μM: 129.3%
Concentration of FLNA-Binding Compound as Agonist 1 μM: 184.3%
Concentration of FLNA-Binding Compound as Agonist 1 μM + BFNA: 33.9%

CC(=O)Nc1ccc(S(=O)(=O)N2CCC3(CC2)OCCN3S(=O)(=O)c2ccc(NC(C)=O)cc2)cc1 [Compound C0013]
% DAMGO (0.1 μM): 91.0%
% DAMGO (1 μM): 108.9%
% DAMGO + BFNA: 61.8%
Concentration of FLNA-Binding Compound as Agonist 0.1 μM: 156.6%
Concentration of FLNA-Binding Compound as Agonist 1 μM: 301.2%
Concentration of FLNA-Binding Compound as Agonist 1 μM + BFNA: 39.6%

COc1c2c(cc3c1C(CC(=O)CCc1ccccc1)N(C)CC3)OCO2 (stereo not drawn) [Compound B0050]
% DAMGO (0.1 μM): 58.1%
% DAMGO (1 μM): 96.4%
% DAMGO + BFNA: 294.0%
Concentration of FLNA-Binding Compound as Agonist 0.1 μM: 98.2%
Concentration of FLNA-Binding Compound as Agonist 1 μM: 211.0%
Concentration of FLNA-Binding Compound as Agonist 1 μM + BFNA: 48.8%

COc1ccc(S(=O)(=O)N2CCC3(NCCO3)C3CCCCC32)cc1 (stereo not drawn) [Compound C0144M-2]
% DAMGO (0.1 μM): 108.3%
% DAMGO (1 μM): 90.8%
% DAMGO + BFNA: 137.9%
[35S]GTPγS binding, FLNA-Binding Compound as Agonist at 0.1 μM [1]: 186.3%
[35S]GTPγS binding, FLNA-Binding Compound as Agonist at 1 μM + BFNA [2]: 125.9%
[35S]GTPγS binding, FLNA-Binding Compound as Agonist at 1 μM [3]: 295.9%

O=C(c1ccc([N+](=O)[O-])cc1)N1CCC2(CC1)OCCN2S(=O)(=O)c1ccc([N+](=O)[O-])cc1 [Compound C0022]
% DAMGO (0.1 μM): 113.5%
% DAMGO (1 μM): 123.2%
% DAMGO + BFNA: 25.7%
Concentration of FLNA-Binding Compound as Agonist 0.1 μM: 194.3%
Concentration of FLNA-Binding Compound as Agonist 1 μM: 328.7%
Concentration of FLNA-Binding Compound as Agonist 1 μM + BFNA: 13.4%

CC(=O)c1ccc(S(=O)(=O)N2CC(CN(C)C)OC23CCNCC3)cc1 (stereo not drawn) [Compound C0118M]
% DAMGO (0.1 μM): 87.8%
% DAMGO (1 μM): 105.4%
% DAMGO + BFNA: 163.3%
[35S]GTPγS binding, FLNA-Binding Compound as Agonist at 0.1 μM: 166.2%
[35S]GTPγS binding, FLNA-Binding Compound as Agonist at 1 μM: 261.5%
[35S]GTPγS binding, FLNA-Binding Compound as Agonist at 1 μM + BFNA: 79.2%

CC1CN(CC(O)COc2cccc(C(F)(F)F)c2)CC(C)O1 (stereo not drawn) [Compound A0051]
% DAMGO (0.1 μM): 148.0%
% DAMGO (1 μM): 140.1%
% DAMGO + BFNA: 286.3%
Concentration of FLNA-Binding Compound as Agonist 0.1 μM: 290.4%
Concentration of FLNA-Binding Compound as Agonist 1 μM: 386.6%
Concentration of FLNA-Binding Compound as Agonist 1 μM + BFNA: 211.6%

COc1ccc(S(=O)(=O)N2CCCC3(C2)OCCN3S(=O)(=O)c2ccc(OC)cc2)cc1 (stereo not drawn) [Compound C0145M]
% DAMGO (0.1 μM): 112.2%
% DAMGO (1 μM): 88.7%
% DAMGO + BFNA: 95.3%
Concentration of FLNA-Binding Compound as Agonist 0.1 μM: 193.0%
Concentration of FLNA-Binding Compound as Agonist 1 μM: 289.2%
Concentration of FLNA-Binding Compound as Agonist 1 μM + BFNA: 87.0%

COc1cc(F)ccc1C(=O)CC1c2c(cc3c(c2OC)OCO3)CC[N+]1(C)C (stereo not drawn) [Compound B0007]
% DAMGO (0.1 μM): 95.3%
% DAMGO (1 μM): 86.1%
% DAMGO + BFNA: 98.2%
Concentration of FLNA-Binding Compound as Agonist 0.1 μM: 168.3%
Concentration of FLNA-Binding Compound as Agonist 1 μM: 223.3%
Concentration of FLNA-Binding Compound as Agonist 1 μM + BFNA: 64.5%

COc1ccc(C(=O)N2CCC3(CC2)OCCN3C(=O)c2ccc(OC)cc2)cc1 [Compound C0017]
% DAMGO (0.1 μM): 87.1%
% DAMGO (1 μM): 109.7%
% DAMGO + BFNA: 143.2%
Concentration of FLNA-Binding Compound as Agonist 0.1 μM: 153.8%
Concentration of FLNA-Binding Compound as Agonist 1 μM: 284.5%
Concentration of FLNA-Binding Compound as Agonist 1 μM + BFNA: 94.1%

CC(=O)c1ccc(S(=O)(=O)N2CCOC23CCNCC3)cc1 [Compound C0046]
% DAMGO (0.1 μM): 197.4%
% DAMGO (1 μM): 211.5%
% DAMGO + BFNA: 356.4%
[35S]GTPγS binding, FLNA-Binding Compound as Agonist at 0.1 μM [1]: 286.2%
[35S]GTPγS binding, FLNA-Binding Compound as Agonist at 1 μM + BFNA [2]: 156.8%
[35S]GTPγS binding, FLNA-Binding Compound as Agonist at 1 μM [3]: 492.9%

COCOc1ccc(C(=O)CC2c3c(cc4c(c3OC)OCO4)CC[N+]2(C)C)cc1C (stereo not drawn) [Compound B0041]
% DAMGO (0.1 μM): 39.3%
% DAMGO (1 μM): 47.2%
% DAMGO + BFNA: 128.5%
Concentration of FLNA-Binding Compound as Agonist 0.1 μM: 61.6%
Concentration of FLNA-Binding Compound as Agonist 1 μM: 109.3%
Concentration of FLNA-Binding Compound as Agonist 1 μM + BFNA: 41.9%

COc1cccc(S(=O)(=O)N2CCC3(CC2)OCCN3S(=O)(=O)c2cccc(OC)c2)c1 [Compound C0002]
% DAMGO (0.1 μM): 51.4%
% DAMGO (1 μM): 33.9%
% DAMGO + BFNA: 6.1%
Concentration of FLNA-Binding Compound as Agonist 0.1 μM: 88.4%
Concentration of FLNA-Binding Compound as Agonist 1 μM: 93.8%
Concentration of FLNA-Binding Compound as Agonist 1 μM + BFNA: 3.9%

COCOc1ccc(CCC(=O)CC2c3c(cc4c(c3OC)OCO4)CC[N+]2(C)C)cc1 (stereo not drawn) [Compound B0040]
% DAMGO (0.1 μM): 93.2%
% DAMGO (1 μM): 105.1%
% DAMGO + BFNA: 169.6%
Concentration of FLNA-Binding Compound as Agonist 0.1 μM: 146.0%
Concentration of FLNA-Binding Compound as Agonist 1 μM: 243.3%
Concentration of FLNA-Binding Compound as Agonist 1 μM + BFNA: 55.3%

CC(=O)c1ccc(OCC(O)CN2CC(C)OC(C)C2)cc1 (stereo not drawn) [Compound A0044]
% DAMGO (0.1 μM): 89.8%
% DAMGO (1 μM): 75.8%
% DAMGO + BFNA: 182.3%
Concentration of FLNA-Binding Compound as Agonist 0.1 μM: 176.2%
Concentration of FLNA-Binding Compound as Agonist 1 μM: 209.1%
Concentration of FLNA-Binding Compound as Agonist 1 μM + BFNA: 134.7%

Cc1ccccc1S(=O)(=O)N1CCC2(CC1)OCCN2S(=O)(=O)c1ccccc1C [Compound C0015]
% DAMGO (0.1 μM): 78.5%
% DAMGO (1 μM): 78.9%
% DAMGO + BFNA: 193.0%
Concentration of FLNA-Binding Compound as Agonist 0.1 μM: 138.7%
Concentration of FLNA-Binding Compound as Agonist 1 μM: 204.7%
Concentration of FLNA-Binding Compound as Agonist 1 μM + BFNA: 126.8%
